Reference: the supplement of paper PMC11208160

Assay: recombinant barcode read abundance after kanamycin selection (control-corrected) (log10(CPM+1)); higher = more efficient recombination; sequences stand for … in AGTGCAGAGAAAATCGGCCAGTTTTCTCTGCCTGCAGTCCGCATGCCGT…AGATTTATGCAGCGGACTGCCTTTCTCCCAAAGTGATAAACCGGACAGTATCATGGACCGGTTTTCCCGGTAATCCGTATTTGCAAGGTTGGTTTCACT; site = the 11-nt target
Summary of the method: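 Pooled E. coli screen pairing targets with IS621 bridge RNA target-binding loops. Each oligo (promoter, target, barcode, J23119-driven first 104 bridge RNA bases) was Gibson-cloned into a vector with the remaining 73 bp and T7-inducible recombinase, then co-electroporated with a donor plasmid. Two replicates each were plated on chloramphenicol/ampicillin LB agar (control) or chloramphenicol/ampicillin/kanamycin with 0.1 mM IPTG. Recombination efficiency is recombinant-junction barcode counts as CPM, averaged, control-corrected, reported as log10(CPM+1).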
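Further: IS621 recombinase and bridge RNA in Escherichia coli cells.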

Sequence	recombinant barcode read abundance (log10)
CTACCCTCTTGGGTTCTAACCTGTTGCAT (site CTATCCTCTAT)	0.413
CTACCTTCTTGGGTTCTAACCTGTTGCCT (site CAACCTTCTAG)	0.203
CTACCTTCTTGGGTTCTAACCTGTTGCCT (site CTACCTTCTAG)	1.37
CTACGGACTTGGGTTCTAACCTGTTGCTG (site CTACGAACTCA)	1.82
CTACGGACTTGGGTTCTAACCTGTTGCTG (site CTACGCACTCA)	0.206
CTACGGACTTGGGTTCTAACCTGTTGCTG (site CTACGGACTCA)	2.77
CTACGGACTTGGGTTCTAACCTGTTGCTG (site CTACGTACTCA)	0.0171
CTACGTACTTGGGTTCTAACCTGTTGCCT (site ATACGTACTAG)	0.00899
CTACGTACTTGGGTTCTAACCTGTTGCCT (site CTACGTACTAG)	1.3
CTACGTACTTGGGTTCTAACCTGTTGCCT (site GTACGTACTAG)	0.0661
CTACGTACTTGGGTTCTAACCTGTTGCCT (site TTACGTACTAG)	0.0415
CTACGTACTTGGGTTCTAACCTGTTGCTG (site CTACGAACTCA)	0.0136
CTACGTACTTGGGTTCTAACCTGTTGCTG (site CTACGCACTCA)	0.138
CTACGTACTTGGGTTCTAACCTGTTGCTG (site CTACGGACTCA)	0.0671
CTACGTACTTGGGTTCTAACCTGTTGCTG (site CTACGTACTCA)	1.75
CTACTAACTTGGGTTCTAACCTGTTGCCT (site CTACTAACTAA)	0.0105
CTACTAACTTGGGTTCTAACCTGTTGCCT (site CTACTAACTAC)	0.0952
CTACTAACTTGGGTTCTAACCTGTTGCCT (site CTACTAACTAG)	1.3
CTACTAACTTGGGTTCTAACCTGTTGCCT (site CTACTAACTAT)	0.182
CTACTAGCTTGGGTTCTAACCTGTTGCAC (site CTACTAGCTAT)	0.0299
CTACTAGCTTGGGTTCTAACCTGTTGCAC (site CTACTAGCTCT)	0.433
CTACTAGCTTGGGTTCTAACCTGTTGCAC (site CTACTAGCTGT)	1.66
CTACTAGCTTGGGTTCTAACCTGTTGCAC (site CTACTAGCTTT)	0.727
CTACTTACTTGGGTTCTAACCTGTTGCCT (site CTAATTACTAG)	0.0298
CTACTTACTTGGGTTCTAACCTGTTGCCT (site CTACTTACTAG)	0.741
CTACTTACTTGGGTTCTAACCTGTTGCCT (site CTAGTTACTAG)	0

Sequence	recombinant barcode read abundance (log10)
CTACTTACTTGGGTTCTAACCTGTTGCCT (site CTATTTACTAG)	0.1
CTAGAAGCTTGGGTTCTAACCTGTTGCGG (site CTAGAAGCTCC)	1.31
CTAGAAGCTTGGGTTCTAACCTGTTGCGG (site CTGGAACCTCC)	0.401
CTAGACTCTTGGGTTCTAACCTGTTGCTA (site CTAGACTCTAA)	0.587
CTAGACTCTTGGGTTCTAACCTGTTGCTA (site CTAGACTCTCA)	0.234
CTAGACTCTTGGGTTCTAACCTGTTGCTA (site CTAGACTCTGA)	0.117
CTAGACTCTTGGGTTCTAACCTGTTGCTA (site CTAGACTCTTA)	2.7
CTAGAGTCTTGGGTTCTAACCTGTTGCTT (site CTAGAGTCTAA)	2.66
CTAGAGTCTTGGGTTCTAACCTGTTGCTT (site CTAGCGTCTAA)	0.0496
CTAGATTCTTGGGTTCTAACCTGTTGCCT (site CAAGATTCTAG)	0.167
CTAGATTCTTGGGTTCTAACCTGTTGCCT (site CCAGATTCTAG)	0.116
CTAGATTCTTGGGTTCTAACCTGTTGCCT (site CGAGATTCTAG)	0.077
CTAGATTCTTGGGTTCTAACCTGTTGCCT (site CTAGATTCTAG)	1.49
CTAGCCGCTTGGGTTCTAACCTGTTGCTT (site AGCCTATCTTG)	0.119
CTAGCCGCTTGGGTTCTAACCTGTTGCTT (site CTAGCCGCTAA)	1.03
CTAGCGGCTTGGGTTCTAACCTGTTGCAG (site CTAGCGGCTCT)	2.05
CTAGCGGCTTGGGTTCTAACCTGTTGCAG (site CTAGCTCCTCT)	0.0734
CTAGGCCCTTGGGTTCTAACCTGTTGCCT (site CTAGGCCCTAA)	0.584
CTAGGCCCTTGGGTTCTAACCTGTTGCCT (site CTAGGCCCTAC)	2.1
CTAGGCCCTTGGGTTCTAACCTGTTGCCT (site CTAGGCCCTAG)	0.184
CTAGGCCCTTGGGTTCTAACCTGTTGCCT (site CTAGGCCCTAT)	0.506
CTAGGCCCTTGGGTTCTAACCTGTTGCTT (site CTAGGCCCTAA)	0.563
CTAGGCCCTTGGGTTCTAACCTGTTGCTT (site CTAGGCCCTAC)	0.18
CTAGGCCCTTGGGTTCTAACCTGTTGCTT (site CTAGGCCCTAG)	0.229
CTAGGCCCTTGGGTTCTAACCTGTTGCTT (site CTAGGCCCTAT)	0.939
CTAGTACCTTGGGTTCTAACCTGTTGCCT (site CTAGTACCTAG)	1.43

Sequence	recombinant barcode read abundance (log10)
CTAGTACCTTGGGTTCTAACCTGTTGCCT (site TTAGTAACTAG)	0.0602
CTAGTAGCTTGGGTTCTAACCTGTTGCGG (site CTAGTAGCTAC)	0.553
CTAGTAGCTTGGGTTCTAACCTGTTGCGG (site CTAGTAGCTCC)	1.56
CTAGTCCCTTGGGTTCTAACCTGTTGCCG (site CTAGTCCCTCG)	1.79
CTAGTCCCTTGGGTTCTAACCTGTTGCCG (site TTAGTCCCTCG)	0.176
CTAGTGGCTTGGGTTCTAACCTGTTGCCG (site CTAGTGGCTCG)	1.3
CTAGTGGCTTGGGTTCTAACCTGTTGCCG (site TCGTCACCTAT)	0.0446
CTATAGACTTGGGTTCTAACCTGTTGCCT (site CTATAGACTAG)	1.11
CTATAGACTTGGGTTCTAACCTGTTGCCT (site CTATCGACTAG)	0.163
CTATAGACTTGGGTTCTAACCTGTTGCCT (site CTATGGACTAG)	0.475
CTATAGACTTGGGTTCTAACCTGTTGCCT (site CTATTGACTAG)	0.317
CTATCCACTTGGGTTCTAACCTGTTGCCT (site CTATCCACTAG)	1.63
CTATCCACTTGGGTTCTAACCTGTTGCCT (site CTGTCGACTAG)	0.873
CTATGACCTTGGGTTCTAACCTGTTGCCT (site CTATGACCTAA)	0.124
CTATGACCTTGGGTTCTAACCTGTTGCCT (site CTATGACCTAC)	0.23
CTATGACCTTGGGTTCTAACCTGTTGCCT (site CTATGACCTAG)	1.9
CTATGACCTTGGGTTCTAACCTGTTGCCT (site CTATGACCTAT)	0.104
CTATGTGCTTGGGTTCTAACCTGTTGCTT (site CTATGTGCTAA)	0.337
CTATGTGCTTGGGTTCTAACCTGTTGCTT (site CTATGTGCTAC)	0.37
CTATGTGCTTGGGTTCTAACCTGTTGCTT (site CTATGTGCTAG)	1.1
CTATGTGCTTGGGTTCTAACCTGTTGCTT (site CTATGTGCTAT)	0.746
CTATTAACTTGGGTTCTAACCTGTTGCTA (site ACTCACCCTCC)	0.00656
CTATTAACTTGGGTTCTAACCTGTTGCTA (site CTATTAACTTA)	0.328
CTATTCCCTTGGGTTCTAACCTGTTGCTG (site CTATTCCCTCA)	1.99
CTATTCCCTTGGGTTCTAACCTGTTGCTG (site CTCTTCCCTAA)	0.185
